Test results: patent US5079257A, “Indoloquinone compounds” (priority 1986, dated 1992)
Like-named read-outs stand apart in the source and are kept apart here.

Key:
[1] = test system: Lung-NSCLC (LXFG) line; assay: Human tumour xenograft in nude mice: lung; type: in vivo; details: i.v. days 14 and 21, 4 and 6 mg/kg
Source text: (§1) Based on the results obtained during the in vitro experiments indoloquinone E.O. 9 was selected for an extended in vivo study. The activity of this compound has been determined in four human tumour xenografts transplanted in nude mice.
(§2) The xenograft experiments have been carried by Dr. H. H. Fiebig of the University of Freiburg [Lung-NSCLC (LXGF) line, Renal line, Breast line; See: H. H. Fiebig et al., Behring Inst. Mitt., 74 343] and by Dr. E. Boven of the Free University Hospital Amsterdam [Ovarian (MRI-H-207) line; See: E. Boven et al., Cancer Res., 45, 86 (1985) and E. Boven et al., Eur. J. Clin. Oncol., 21, 1253 (1985)].
The tumour was transplanted s.c. and E.O. 9 was administrated i.v. on days 14 and 21 after transplantation at a dose of 4 and 6 mg/kg.

[2] = test system: Renal line (RXF 423); assay: Human tumour xenograft in nude mice: renal; type: in vivo; details: i.v. days 22 and 29, 4 and 6 mg/kg
Source text: as §1, §2
The tumour was transplanted s.c. and E.O. 9 was administrated i.v. on days 22 and 29 after transplantation at a dose of 4 and 6 mg/kg.

[3] = test system: Breast line; assay: Human tumour xenograft in nude mice: breast; type: in vivo; details: i.v. days 46 and 53, 4 and 6 mg/kg
Source text: as §1, §2
The tumour was transplanted s.c. and E.O. 9 was administrated i.v. on days 46 and 53 after transplantation at a dose of 4 and 6 mg/kg.

[4] = test system: Ovarian (MRI-H-207) line; type: in vivo, human; details: for T/C % / toxic deaths: days of treatment 0.7
Source text: as §2
Mice: C57B1 athymic (nu/nu) female mice, 8 to 10 weeks of age were used for s.c. bilateral implantation of tumour fragments 2 mm diameter.
Treatment: E.O. 9 was dissolved in saline at a concentration of 0.5 mg/ml prior to administration. Drug doses and schedules were derived from studies in experimental murine tumour systems and from orientation studies in non-tumour-bearing nude mice. Treatment was started i.v. when tumours measured 50-150 mm^3. After randomization a group of 6-7 tumour-bearing mice was treated and a group of 5-6 tumour-bearing mice served as control.
Evaluation of efficacy: Tumours were measured twice weekly in three dimensions. Efficacy was expressed as the mean of relative tumour volume in treated animals vs. that in control animals×100 (% T/C). The optimal value was calculated within 35 days after the last injection. Toxic death (dead mice within two weeks after the last injection) were excluded from the evaluation.
MRI-H-207: An undifferentiated adenocarcinoma kindly provided by Dr. A. E. Bogden, Worcester, Mass, with a doubling time of 3-5 days.

Cn1c(/C=C/CO)c(CO)c2c1C(=O)C=C(N1CC1)C2=O [E.O. 9, 5-Aziridino-3-hydroxymethyl-1-methyl-2-[1H-indole-4,7-dione]prop-β-en-α-ol]
optimal growth inhibition [1]: 42%
specific growth delay [1]: 1.03
growth inhibition [2]: No significant growth inhibition
optimal growth inhibition [3]: 51%
T/C % ([4]; 5 mg/kg): 3.8%
toxic deaths ([4]; 5 mg/kg): 0/7
T/C % ([4]; 6 mg/kg): 2.4%
toxic deaths ([4]; 6 mg/kg): 1/7
optimal growth inhibition ([4]; 5 and 6 mg/kg q8d×2): 98%
